Assay results: patent publication US10287617B2, “Methods for in vitro—in vivo efficacy determination” (COLORADO STATE UNIVERSITY RESEARCH FOUNDATION, priority 2014, dated 2019)
Like-named read-outs stand apart in the source and are kept apart here. Marks after values point to notes of the source that are not given here.

How the values were obtained:
[1] = tested on: M. tuberculosis H37Rv; format: cell-based
[2] = tested on: M. tuberculosis H37Rv; assay: Growth inhibition / time dose curves (OD600 and CFU); format: cell-based, Mycobacterium tuberculosis; details: O.D. 600 nm growth curves, 5 days
[3] = tested on: non-replicating M. tuberculosis H37Rv; assay: Low oxygen study, non-replicating bacilli; format: cell-based, Mycobacterium tuberculosis; details: for Log10 (CFU+/−SD): 96 h post-treatment; for % Growth Reduction: benzimidazoles at 4 μg/mL; for Log10 (CFU) Reduction: vs control
Experimental: The low oxygen studies were performed similar to those described previously (Lenaerts et al., Antimicrob. Agents Chemother. 2005; 49:2294-2301). Briefly, M. tuberculosis H37Rv were diluted to an O.D. 600 nm of 0.003 in 7H9 media containing Methylene Blue (1.5 μg/mL) and were grown in 16×125 mm Hungate tubes with rubber septa (VWR cat#89167-170). The tubes, with 11 mL of the diluted cultures were incubated at 37° C. under agitation (150 rpm). […] One week after the reduction of methylene blue, approximately 28 days from the start, drug treatment was initiated with the test and control drugs. Prior to treatment, an aliquot was removed and plated for a CFU count to serve as a control. Isoniazid and metronidazole were used in the studies as comparative controls.
Recovery of aliquots for plating and the addition of drugs were conducted through septa using syringes to maintain the low-oxygen conditions. Ninety-six hours post-treatment, 1 mL of the culture was removed from the oxygen depleted cultures, the aliquot was serial diluted and the dilutions were plated. Log10 CFUs were calculated for the different treatments and concentrations. Percentage growth reduction from the controls was calculated and reported.

[4] = tested on: M. tuberculosis; assay: Benzimidazoles activity tested in animals (animal models of infection, Table A); format: in vivo, mouse; details: Table A
Experimental: (§1) Further analysis using the methods described herein was performed on the compounds found in Tables A and B (bold font compounds are shown in FIG. 11) resulting in the data found therein.
(§2) Compound efficacy was assessed in two murine models of infection based on the short term model described previously (Lenaerts et al., Antimicrob. Agents Chemother. 2003; 47:783-785). All aerosol infections were performed using a Middlebrook aerosol generation devise (Glas-Col, Terre Haute, Ind.).

[5] = tested on: M. tuberculosis H37Rv; assay: MIC / dose response by modified microplate Alamar Blue assay (MABA); format: cell-based, Mycobacterium tuberculosis; details: for drug concentration response curve (kill curve) type: FIG. 3; for MIC range: H37Rv and Erdman strains
[6] = tested on: Mycobacteria tuberculosis; assay: MIC and drug response curve type (Tables A and B); format: cell-based, Mycobacterium tuberculosis; details: Table A; for Curve: drug response curve type; for MIC: in µg/mL
Experimental: A drug concentration response curve can be generated by graphing the log10 drug concentrations (μg/mL) against the difference in growth between the drug-treated wells and control wells. See FIG. 3C, and FIG. 5 (entries for SB-P23D8 and SB-P26D9). A NREBA is indicative of bacteriostatic activity above the MIC.
as §1
MIC values were determined for the benzimidazoles using a modified 96-well microplate Alamar Blue (resazurin) assay (MABA) (see Kumar et al., J. Med. Chem. 2011; 54:374-381; Collins and Franzblau, Antimicrob. Agents Chemother. 1997; 41:1004-1009). Dose response curves were generated from the MABA assay for compounds by graphing the log10 drug concentrations against the difference in growth between the drug-treated wells and control wells using GraphPad Prism Version 5.0d for Mac OS X (GraphPad Software, San Diego Calif., USA, www.graphpad.com). For time dose studies, bacterial growth in the presence of compound was monitored by the O.D. 600 nm. […] The values were plotted against time using GraphPad Prism Version 5.0d for Mac OS X (GraphPad Software, San Diego Calif., USA, www.graphpad.com).

[7] = tested on: M. tuberculosis Erdman; format: in vivo; details: 50 mg/kg b.i.d. (Inh q.d.); for Log10CFU Lungs / Log10CFU Spleen: day 15
[8] = tested on: M. tuberculosis H37Rv; assay: Acute infection model in immune incompetent GKO mice; format: in vivo, mouse; details: compound 150 mg/kg IP q.d. 9 days, isoniazid 25 mg/kg q.d.
Experimental: as §2
(§3) In the first infection model, immune incompetent C57BL/6-Ifngtm1 ts gamma interferon gene disruption (GKO) mice were infected with M. tuberculosis H37Rv. Animals were dosed q.d. IP beginning at day 12 post-infection with 150 mg/kg of compound in 38% ethanol and 10% Solutol (e.g., Solutol HS 15) for 9 consecutive days. In the second animal model, immune competent C57BL/6 mice were infected with M. tuberculosis Erdman (TMCC 107). Animals were dosed b.i.d. IP with 100 mg/kg compound in 25% ethanol and 25% Solutol beginning at day 5 post-in feet ion for 10 consecutive days. Isoniazid was used as a comparative positive control and was delivered q.d. at 25 mg/kg as a positive control.
(§4) In both studies, animals were sacrificed and necropsied, bacterial burden in lungs or spleens were quantified on 7H11 agar containing carbenicillin (Sigma, C1389) and cycloheximide (Sigma, C7698) and upon incubation for three weeks bacterial colony forming units were enumerated. Outliers were identified by the Grubbs' Test and a one-way t-test at a 95% confidence interval was used to compare treatment groups and controls, to calculate p-values, and to produce bar graphs and scatter plots GraphPad Prism Version 5.0d for Mac OS X (GraphPad Software, San Diego Calif., USA www.graphpad.com).

[9] = tested on: M. tuberculosis Erdman; assay: Dissemination model in immune competent C57BL/6 mice; format: in vivo, mouse; details: isoniazid 25 mg/kg q.d.; for reduction of bacterial load in the spleen: compound 100 mg/kg IP b.i.d. 10 days
Experimental: as §2, §3, §4

SMILES	concentrations at which bacterial growth was inhibited [2]	Log10 (CFU+/−SD) [3]	% Growth Reduction [3] [%]	Log10 (CFU) Reduction [3]	Efficacy Lung [4]	Efficacy Spleen [4]	drug concentration response curve (kill curve) type [5]	MIC range [5] [µg/mL]	Curve [6]	MIC [6]	reduction of bacterial load in spleen [8]	reduction of bacterial load in the lungs [8] [log10 CFU]	reduction of bacterial load in the spleen [9]	also measured
CCCCOC(=O)Nc1cc2nc(C3CCCCC3)[nH]c2cc1N1CCCC1 [SB-P8B2]	> 0.31 µg/mL	4.96 ± 0.18	59	0.39	Yes (.243)	No	sigmoidal kill curves	0.39 to 0.78	Sigmoid	.625				MIC In Combination ([1]; SB-P8B2 with rifampicin): 0.1 × MIC; enhancement of activity in the presence of the other drug ([1]; SB-P8B2 with rifampicin): 8 fold; ΣFIC ([1]; SB-P8B2 with rifampicin): 0.63; MIC Alone ([1]; drug alone): 1 × MIC
NNC(=O)c1ccncc1 [Isoniazid, reference compound]		5.15 ± 0.2	36	0.2			sigmoidal kill curve				below the level of detection	1.8	below detectable levels	Δ Lungs (difference between means of Test and Control Groups) ([7]; IP): −6.57*** Log10 CFU; Δ Spleen (difference between means of Test and Control Groups) ([7]; IP): −4.96*** Log10 CFU; Log10CFU Lungs ([7]; IP): 0.12 ± 0.16 Log10 CFU; Log10CFU Spleen ([7]; IP): 0 ± 0 Log10 CFU; Δ Lungs (difference between means of Test and Control Groups) ([7]; PO): −6.31*** Log10 CFU; Δ Spleen (difference between means of Test and Control Groups) ([7]; PO): −3.89*** Log10 CFU; Log10CFU Lungs ([7]; PO): 0 ± 0 Log10 CFU; Log10CFU Spleen ([7]; PO): 0 ± 0 Log10 CFU; reduction of bacterial load in the lung [9]: below detectable levels
CCCCOC(=O)Nc1cc2nc(C3CCCCC3)[nH]c2cc1N(CC)CC [SB-P3G2]	greater than 0.62 μg/mL	4.80 ± 0.21	72	0.48	Yes	Yes	sigmoidal kill curves	0.78 to 1.5	Sigmoid	1.25	0.41±0.36 log10 CFU	0.71±0.17	1.6±0.49 log10	
